Source: patent publication US8476253B2, “Amide derivative” (Daiichi Sankyo Company, Limited, priority 2009, dated 2013)
Counter-ions that a name gives are not always drawn. Like-named read-outs stand apart in the source and are kept apart here.

Assays:
muscarine M3 receptor = experiment: Effect of suppressing methacholine-induced airway contraction (in vivo, intratracheal administration); parameters: species or system guinea pig; conditions: guinea pigs, intratracheal administration 60 minutes before 30 μg/kg i.v. methacholine; AUC of increase in airway pressure over 10 minutes
Experimental: Using healthy guinea pigs (body weight, 350 to 550 g; Hartley male guinea pigs), the effect of suppressing airway contraction induced by methacholine, which is a muscarine receptor agonist, was examined by a modified method of Konzett-Roessler (Naunyn-Schmiedebergs Arch. Exp. Pathol. Pharmakol. 195, 71 [1940]) using airway pressure as an indicator.
A tracheal cannula and a venous cannula were attached to a guinea pig anesthetized with pentobarbital (50 mg/mL of solution, 0.40 to 0.50 mL/body, subcutaneous administration). An arterial cannula filled with heparin-containing physiological saline (100 U/mL) was further attached, and blood pressure and heart rate were monitored via an amplifier and an instantaneous heart rate meter. Subsequently, gallamine (20 mg/body, intravenous administration) was administered to terminate spontaneous breathing, and then 10 mL/kg of positive pressure breathing (Ugo-Basile Biological Research Apparatus, Cat. No. 7025) was rapidly performed at 60 times/min. The airway pressure during artificial breathing was detected with a pressure transducer (TP-200T or TP-400T; Nihon Kohden Corporation) attached to a side branch of the tracheal cannula, amplified (AP-601G; Nihon Kohden Corporation), and recorded in a recorder. After the airway pressure, blood pressure, and heart rate were stabilized, 30 μg/kg of methacholine was intravenously administered from the venous cannula to induce airway contraction, and the airway pressure was measured for the following 10 minutes.
A test substance was dissolved in 5% glucose solution, and a 0.5 mL/kg solution was administered intratracheally with an intratracheal administration apparatus (model 1A-1B; Penn-Century, Inc.) 60 minutes before stimulation with methacholine.
The AUC of increase in the airway pressure over 10 minutes after administration of methacholine was measured as the intensity of methacholine-induced airway contraction and calculated as an ID50 value from the inhibition rate based on the value of the control group (a 5% glucose solution intratracheal administration group).

human NK2 receptor = target: T1, human NK2 receptor (Homo sapiens, UniProt P21452); experiment: Test for binding to human NK2 receptor
T1 construct: expressed in transfected cells; host or cells: COS cells
T1 sequence (P21452 1-398): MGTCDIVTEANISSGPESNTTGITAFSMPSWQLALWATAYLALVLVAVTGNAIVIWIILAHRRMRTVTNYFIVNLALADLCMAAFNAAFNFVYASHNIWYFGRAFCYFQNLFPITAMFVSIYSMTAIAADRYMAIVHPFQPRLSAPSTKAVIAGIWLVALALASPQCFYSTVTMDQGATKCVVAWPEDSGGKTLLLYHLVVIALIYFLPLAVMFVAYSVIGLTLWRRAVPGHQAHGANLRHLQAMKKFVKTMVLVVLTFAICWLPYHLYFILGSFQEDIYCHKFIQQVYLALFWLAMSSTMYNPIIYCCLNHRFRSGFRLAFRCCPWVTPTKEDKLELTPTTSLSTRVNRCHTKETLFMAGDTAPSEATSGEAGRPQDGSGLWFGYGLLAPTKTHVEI
In short: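 Radioligand binding with [^3H]SR 48968 on cryopreserved COS cells expressing human NK2 receptor (5.0×10^5 cells/mL), in 50 mM Tris-HCl pH 7.4 with BSA, MnCl2 and protease inhibitors. Bound label collected on PEI-treated GF/B filters, counted by liquid scintillation; Ki derived from IC50 and radioligand Kd.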

human M3 receptor = target: T2, human M3 receptor (Homo sapiens, UniProt P20309); experiment: Test for binding to human M3 receptor
T2 construct: expressed in transfected cells; host or cells: CHO cells
In short: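 CHO-cell crude membranes expressing human M3 were incubated with [N-methyl-3H]-(−)-scopolamine methyl chloride in 50 mM Tris-HCl, 0.5 mM EDTA, pH 7.4, for 60 min at room temperature. Bound ligand was collected on PEI-pretreated glass-fibre filters and counted by liquid scintillation. Ki was calculated from IC50 and the radioligand Kd.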

[1] = COS cells expressing human NK2 receptor, [3H]SR 48968 1 nM, Ki from IC50 and Kd, read-out: Ki
[2] = CHO cells expressing human M3 receptor, [N-methyl-3H]-(-)-Scopolamine methyl chloride 0.5 nM, Ki from IC50 and Kd, read-out: Ki

T2 sequence (P20309 whole entry): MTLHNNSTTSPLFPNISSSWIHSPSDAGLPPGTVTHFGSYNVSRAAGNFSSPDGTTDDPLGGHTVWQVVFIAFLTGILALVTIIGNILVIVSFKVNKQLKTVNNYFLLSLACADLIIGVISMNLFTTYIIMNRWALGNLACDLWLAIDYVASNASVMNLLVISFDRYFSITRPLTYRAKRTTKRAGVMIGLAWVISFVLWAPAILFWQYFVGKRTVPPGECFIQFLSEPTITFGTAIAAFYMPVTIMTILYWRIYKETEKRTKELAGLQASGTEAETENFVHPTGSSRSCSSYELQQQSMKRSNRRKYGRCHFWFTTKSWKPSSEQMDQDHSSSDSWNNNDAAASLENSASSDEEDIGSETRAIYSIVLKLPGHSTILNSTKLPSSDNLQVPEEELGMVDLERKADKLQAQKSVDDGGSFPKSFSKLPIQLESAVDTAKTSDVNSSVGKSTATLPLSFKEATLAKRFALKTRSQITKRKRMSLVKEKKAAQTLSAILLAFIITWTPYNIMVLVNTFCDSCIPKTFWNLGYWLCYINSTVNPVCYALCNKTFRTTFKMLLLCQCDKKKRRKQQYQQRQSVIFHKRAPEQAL

CN(CCN1CCC(OC(=O)Nc2ccccc2-c2ccccc2)CC1)C(=O)CCCCN(C)c1ccc(C(=O)N(C)CCCN(C)C(=O)CO[C@H]2Cc3ccccc3C23CCN(CC[C@@]2(c4ccc(F)cc4)CN(C(=O)c4cc(C(F)(F)F)cc(C(F)(F)F)c4)CO2)CC3)cc1 [Example 38, 1-{2-[{5-[{4-[{3-[({[(2S)-1′-{2-[(5R)-3-[3,5-Bis(trifluoromethyl)benzoyl]-5-(4-fluorophenyl)-1,3-oxazolidin-5-yl]ethyl}-2,3-dihydrospiro[indene-1,4′-piperidin]-2-yl]oxy}acetyl)(methy)amino]propyl}(methyl)carbamoyl]phenyl}(methyl)amino]pentanoyl}(methyl)amino]ethyl}piperidin-4-yl biphenyl-2-ylcarbamate trihydrochloride]
ID50 (muscarine M3 receptor): 0.0257 mg/kg | Ki (human NK2 receptor; [1]): 0.89 nM | Ki (human M3 receptor; [2]): 1.8 nM

CN(CCN1CCC(OC(=O)Nc2ccccc2-c2ccccc2)CC1)C(=O)CCCNc1ccc(C(=O)N(C)CCCN(C)C(=O)CO[C@H]2Cc3ccccc3C23CCN(CC[C@@]2(c4ccc(F)cc4)CN(C(=O)c4cc(C(F)(F)F)cc(C(F)(F)F)c4)CO2)CC3)cc1 [Example 34, 1-(2-{[4-({4-[{3-[({[(2S)-1′-{2-[(5R)-3-[3,5-Bis(trifluoromethyl)benzoyl]-5-(4-fluorophenyl)-1,3-oxazolidin-5-yl]ethyl}-2,3-dihydrospiro[indene-1,4′-piperidin]-2-yl]oxy}acetyl)(methyl)amino]propyl}(methyl)carbamoyl]phenyl}amino)butanoyl](methyl)amino}ethyl)piperidin-4-yl biphenyl-2-ylcarbamate trihydrochloride]
ID50 (muscarine M3 receptor): 0.0251 mg/kg | Ki (human NK2 receptor): 0.54 nM | Ki (human M3 receptor): 1.5 nM

Cc1cc(NCCCCCC(=O)N(C)CCN2CCC(OC(=O)Nc3ccccc3-c3ccccc3)CC2)ccc1C(=O)N(C)CCCN(C)C(=O)CO[C@H]1Cc2ccccc2C12CCN(CC[C@@]1(c3ccc(F)cc3)CN(C(=O)c3cc(C(F)(F)F)cc(C(F)(F)F)c3)CO1)CC2 [Example 18, 1-(2-{[6-({4-[{3-[({[(2S)-1′-{2-[(5R)-3-[3,5-Bis(trifluoromethyl)benzoyl]-5-(4-fluorophenyl)-1,3-oxazolidin-5-yl]ethyl}-2,3-dihydrospiro[indene-1,4′-piperidin]-2-yl]oxy}acetyl)(methyl)amino]propyl}(methyl)carbamoyl]-3-methylphenyl}amino)hexanoyl](methyl)amino}ethyl)piperidin-4-yl biphenyl-2-ylcarbamate trihydrochloride]
ID50 (muscarine M3 receptor): 0.0389 mg/kg | Ki (human NK2 receptor): 0.42 nM | Ki (human M3 receptor): 1.2 nM

CN(CCCCCC(=O)N(C)CCN1CCC(OC(=O)Nc2ccccc2-c2ccccc2)CC1)Cc1ccc(C(=O)N(C)CCCN(C)C(=O)CO[C@H]2Cc3ccccc3C23CCN(CC[C@@]2(c4ccc(F)cc4)CN(C(=O)c4cc(C(F)(F)F)cc(C(F)(F)F)c4)CO2)CC3)cc1 [Example 74, 1-{2-[{6-[{4-[{3-[({[(2S)-1′-{2-[(5R)-3-[3,5-Bis(trifluoromethyl)benzoyl]-5-(4-fluorophenyl)-1,3-oxazolidin-5-yl]ethyl}-2,3-dihydrospiro[indene-1,4′-piperidin]-2-yl]oxy}acetyl)(methyl)amino]propyl}(methyl)carbamoyl]benzyl}(methyl)amino]hexanoyl}(methyl)amino]ethyl}piperidin-4-yl biphenyl-2-ylcarbamate]
ID50 (muscarine M3 receptor): 0.043 mg/kg | Ki (human NK2 receptor; [1]): 0.14 nM | Ki (human M3 receptor; [2]): 0.32 nM

CN(CCN1CCC(OC(=O)Nc2ccccc2-c2ccccc2)CC1)C(=O)CCNc1ccc(C(=O)N(C)CCCN(C)C(=O)CO[C@H]2Cc3ccccc3C23CCN(CC[C@@]2(c4ccc(F)cc4)CN(C(=O)c4cc(C(F)(F)F)cc(C(F)(F)F)c4)CO2)CC3)cc1 [Example 94, 1-{2-[(N-{4-[{3-[({[(2S)-1′-{2-[(5R)-3-[3,5-Bis(trifluoromethyl)benzoyl]-5-(4-fluorophenyl)-1,3-oxazolidin-5-yl]ethyl}-2,3-dihydrospiro[indene-1,4′-piperidin]-2-yl]oxy}acetyl)(methyl)amino]propyl}(methyl)carbamoyl]phenyl}-β-alanyl)(methyl)amino]ethyl}piperidin-4-yl biphenyl-2-ylcarbamate]
ID50 (muscarine M3 receptor): 0.0395 mg/kg | Ki (human NK2 receptor; [1]): 0.75 nM | Ki (human M3 receptor; [2]): 2 nM

CN(CCN1CCC(OC(=O)Nc2ccccc2-c2ccccc2)CC1)C(=O)CCN(C)c1ccc(C(=O)N(C)CCCN(C)C(=O)CO[C@H]2Cc3ccccc3C23CCN(CC[C@@]2(c4ccc(F)cc4)CN(C(=O)c4cc(C(F)(F)F)cc(C(F)(F)F)c4)CO2)CC3)cc1 [Example 95, 1-{2-[(N-{4-[{3-[({[(2S)-1′-{2-[(5R)-3-[3,5-Bis(trifluoromethyl)benzoyl]-5-(4-fluorophenyl)-1,3-oxazolidin-5-yl]ethyl}-2,3-dihydrospiro[indene-1,4′-piperidin]-2-yl]oxy}acetyl)(methy)amino]propyl}(methyl)carbamoyl]phenyl}-N-methyl-β-alanyl)(methyl)amino]ethyl}piperidin-4-yl biphenyl-2-ylcarbamate]
ID50 (muscarine M3 receptor): 0.0462 mg/kg | Ki (human NK2 receptor; [1]): 0.81 nM | Ki (human M3 receptor; [2]): 2.1 nM

CN(CCN1CCC(OC(=O)Nc2ccccc2-c2ccccc2)CC1)C(=O)CCCCCNc1cccc(C(=O)N(C)CCCN(C)C(=O)CO[C@H]2Cc3ccccc3C23CCN(CC[C@@]2(c4ccc(F)cc4)CN(C(=O)c4cc(C(F)(F)F)cc(C(F)(F)F)c4)CO2)CC3)c1 [Example 43, 1-(2-{[6-({3-[{3-[({[(2S)-1′-{2-[(5R)-3-[3,5-Bis(trifluoromethyl)benzoyl]-5-(4-fluorophenyl)-1,3-oxazolidin-5-yl]ethyl}-2,3-dihydrospiro[indene-1,4′-piperidin]-2-yl]oxy}acetyl)(methyl)amino]propyl}(methyl)carbamoyl]phenyl}amino)hexanoyl](methyl)amino}ethyl)piperidin-4-yl biphenyl-2-ylcarbamate trihydrochloride]
ID50 (muscarine M3 receptor): 0.0757 mg/kg | Ki (human NK2 receptor): 1.3 nM | Ki (human M3 receptor): 2.6 nM

CN(CCN1CCC(OC(=O)Nc2ccccc2-c2ccccc2)CC1)C(=O)CCCCCNCc1ccc(C(=O)N(C)CCCN(C)C(=O)CO[C@H]2Cc3ccccc3C23CCN(CC[C@@]2(c4ccc(F)cc4)CN(C(=O)c4cc(C(F)(F)F)cc(C(F)(F)F)c4)CO2)CC3)s1 [Example 1, 1-{2-[{6-[({5-[{3-[({[(2S)-1′-{2-[(5R)-3-[3,5-Bis(trifluoromethyl)benzoyl]-5-(4-fluorophenyl)-1,3-oxazolidin-5-yl]ethyl}-2,3-dihydrospiro[indene-1,4′-piperidin]-2-yl]oxy}acetyl)(methyl)amino]propyl}(methyl)carbamoyl]-2-thienyl}methyl)amino]hexanoyl}(methyl)amino]ethyl}piperidin-4-yl biphenyl-2-ylcarbamate]
ID50 (muscarine M3 receptor): 0.0177 mg/kg | Ki (human NK2 receptor; [1]): 0.57 nM | Ki (human M3 receptor; [2]): 1.4 nM

CN(CCN1CCC(OC(=O)Nc2ccccc2-c2ccccc2)CC1)C(=O)CCCCCNc1ccc(C(=O)N(CCCN(C)C(=O)CO[C@H]2Cc3ccccc3C23CCN(CC[C@@]2(c4ccc(F)cc4)CN(C(=O)c4cc(C(F)(F)F)cc(C(F)(F)F)c4)CO2)CC3)C2CC2)cc1 [Example 25, 1-(2-{[6-({4-[{3-[({[(2S)-1′-{2-[(5R)-3-[3,5-Bis(trifluoromethyl)benzoyl]-5-(4-fluorophenyl)-1,3-oxazolidin-5-yl]ethyl}-2,3-dihydrospiro[indene-1,4′-piperidin]-2-yl]oxy}acetyl)(methyl)amino]propyl}(cyclopropyl)carbamoyl]phenyl}amino)hexanoyl](methyl)amino}ethyl)piperidin-4-yl biphenyl-2-ylcarbamate trihydrochloride]
ID50 (muscarine M3 receptor): 0.0459 mg/kg | Ki (human NK2 receptor): 0.77 nM | Ki (human M3 receptor): 1.4 nM
